The results in this text go back to patent US5824646A, “Intravaginal delivery of biologically active polypeptides” (Teikoku Seiyaku Co., Ltd., priority 1997, dated 1998).

Data set [1] has as its system oophorectomized female Wister rats. The data set can be described thus: Serum calcium decrease after intravaginal porcine calcitonin in young oophorectomized rats. The data set is classed as in vivo, rat. The protocol:
Oophorectomy was performed on 5- to 6-week old female Wister rats which, after about one month, were used in this experiment as an animal model for postmenopausal women.
To 20 I.U. porcine calcitonin, 3 mg of bovine serum albumin (BSA) was added. Sodium lauryl sulfate (hereinafter called "SDS") was then added to the above-prepared mixture to make 0.05, 0.1, 0.5 and 1 w/v% concentrations, respectively. The mixtures of different SDS concentrations were then each diluted with 0.1M acetic acid/sodium acetate buffer solution (pH 5.0) to make 1 ml calcitonin solutions. Rats were anesthetized with ether, and a required amount of blood was taken from the right external jugular vein before the administration of calcitonin. After a small cotton ball was inserted into the vagina of the rat, each 50 microliters of calcitonin solution of different SDS concentrations was administered. Blood was again extracted 2 hours after calcitonin administration.
After the separation of blood serum, serum calcium concentration was determined with a Calcium C test kit, a registered trademark at Wako Chemical in Japan. The results are depicted in FIG. 1.
Oophorectomized menopausal model rats were used in this experiment, similarly to Example 1.
Bovine serum albumin was added to each 1 ml of 2, 10, 20, 40 and 80 I.U./ml of porcine calcitonin dissolved in acetic acid buffer solution (pH 5.0) to make 3 mg/ml. Then, SDS was added to each solution to make 1 w/v%. Similarly to Example 1, these preparations containing different concentrations of calcitonin were administered intravaginally to the rats, and the serum calcium concentration was determined. […] The largest ratio of decreased serum calcium against control noted in this experiment was 30%.

Another data set concerns intravaginal protease. Kind of data set: Protease activity of vaginal wash with BAEE as substrate after intravaginal preparation. The data set is classed as biochemical, rat. The procedure: The calcitonin pharmaceutical preparation was prepared according to Examples 1 and 2. The preparation was inserted into the vagina with a small cotton ball. Two hours after the insertion, the inserted cotton ball was removed from the vagina. The vagina was then washed with a fixed quantity of phosphate buffered saline solution, the washed solution was combined with the cotton ball, and the protease activity was determined with BAEE as substrate.

The test system of data set [2] is oophorectomized rats. The data set can be described thus: Serum H-CT (RIA) and serum calcium after intravaginal H-CT with sodium caprate and Nonidet P-40. The data set is classed as in vivo, rat. To be noted: 250 micrograms H-CT, 0.3% BSA, 1% sodium caprate, 2% Nonidet P-40, pH 5, 1, 2 and 4 hours. The procedure: Oophorectomized rats were used in this experiment in a similar manner as Example 3. 1 mg of H--CT was dissolved in 400 microliters of 0.1M acetate buffer (pH 5) containing 0.3 w/v% bovine serum albumin (BSA) and 1% sodium caprate and 2% Nonidet P-40. 100 microliters of H--CT solution (250 micrograms H--CT) was administered into the vagina of the rat with a small cotton ball. Blood samples were taken from the right external jugular vein of the anesthetized rats at 1, 2 and 4 hours after administration. Serum calcium was determined with a Calcium C test kit. Serum H--CT was also determined by the RIA method using human calcitonin antibody.

Data set [3] deals with oophorectomized rats. Kind of data set: Serum calcitonin (RIA) and serum calcium after intravaginal human calcitonin with SDS. It counts as in vivo, rat. To be noted: 10-200 micrograms HCT per kg, 0.3% BSA, 1 w/v% SDS, pH 5, 2 hours. The protocol: Similarly to Examples 1 and 2, oophorectomized rats were used in this experiment. 1000 micrograms of Human calcitonin (HCT) was dissolved in 1 ml of 0.1M acetate buffer (pH 5) containing 0.3 w/v% bovine serum albumin and 1 w/v% SDS. 10, 25, 50, 100 and 200 micrograms of HCT (protein weight) in solution per 1 kg body weight of rats were taken out of the HCT solution mentioned above, and each portion of the HCT solution was diluted up to 50 microliters with 0.1M acetate buffer (pH 5) containing 0.3% (w/v%) bovine serum albumin and 1 w/v% SDS. Each 50 microliters of HCT solution with a different amount of HCT was administered into the vagina with a small cotton ball. Two hours after drug administration, blood was extracted from the right external jugular vein of the anesthetized rat, and serum calcium was determined with a Calcium C test kit. Serum calcitonin was also determined by a radioimmunoassay method (RIA method), using human calcitonin antibody.

Data set [4] concerns oophorectomized rats. Kind of data set: Serum glucose after intravaginal insulin preparation. The data set is classed as in vivo, rat. To be noted: 5 U. insulin, 1 w/v% SDS. The protocol:
The oophorectomized rats described in Example 1 were used in this experiment. The insulin pharmaceutical preparation prepared according to this invention was administered intravaginally to the rats, and the change in plasma glucose was investigated. Bovine serum albumin and SDS were added to a solution of 100 U./ml insulin in 0.1M acetic acid/sodium acetate buffer solution to make a final concentration of 3 mg/ml and 1 w/v%, respectively. The pH was adjusted to 5.0 with 0.1M acetic acid/sodium acetate buffer solution. The 5 U. insulin preparation was administered into the vagina of the rat with a small cotton ball. Serum glucose at 2 hours after drug administration was compared with that before drug administration. It was noted that at 2 hours after drug administration, the blood sugar level decreased about 30% in comparison with that prior to drug administration.

In data set [5] the test system is 5-week-old male Wister rats. The data set can be described thus: Effect of pH and human serum albumin on calcitonin stability: bioassay by intramuscular injection. The data set is classed as in vivo, rat. As to conditions: 0.03 I.U./ml, 4° C. for one week, bioassay 0.06 I.U./kg i.m. The procedure:
Using blood calcium decreasing ratio as an indication, the effect of pH and human serum albumin (HSA) on the stability of calcitonin in the preparation of this invention was investigated using 5-week-old male Wister rats.
Purified porcine calcitonin (P--CT) was dissolved in 0.1M acetic acid buffer solutions of pH 3.0 and pH 5.0 and 0.1M phosphoric acid buffer solution of pH 6.8 so that each of the solutions contained 0.03 I.U./ml of porcine calcitonin. Each calcitonin solution (pH 3.0, 5.0, 6.8) was divided into two parts. In each case, to one portion of the calcitonin solutions 3 mg/ml of HSA was added, while no treatment was performed on the other portion. The resultant preparations were stored at 4° C. for one week. These calcitonin preparations were then each injected into the femoral bicipital muscle of the rats at a dosage of 0.06 I.U. per kg body weight. An appropriate quantity of blood was extracted from the right external jugular vein, and blood […] was determined with a Calcium C-Test kit.

Data set [6] relates to aged, oophorectomized rats. The data set can be described thus: Serum calcium decrease by porcine calcitonin in aged oophorectomized rats. The data set is classed as in vivo, rat. As to conditions: intramuscular injection (femoral bicipital muscle), different concentrations. The procedure: The ovaries of 30-week-old female Wister rats were excised about one month before use in the experiment.
Prior to this experiment, a separate experiment was performed to investigate the susceptibility of aged, oophorectomized rats to porcine calcitonin. Different concentrations of calcitonin were injected into rats in the femoral bicipital muscle, and the decreasing serum calcium was determined.
Following the procedure of Examples 1 and 2, a dose of 4 I.U. calcitonin per rat was prepared and administered intravaginally by inserting a small cotton ball in the vagina. Following the procedure of Examples 1 and 2, blood was extracted and the blood calcium concentration was determined.

Data set [7] relates to 5-week-old Wister male rats. Kind of data set: Effect of SDS on calcitonin stability: bioassay of stored preparations by intramuscular injection. The data set is classed as in vivo, rat. The protocol: A porcine calcitonin (P--CT) pharmaceutical preparation according to the invention was prepared by the method described in Examples 1 and 2, and the stability of porcine calcitonin in the resultant preparation was investigated. Thus, 1 ml of 3 mg/ml bovine serum albumin (BSA) solution was added to 40 I.U. of porcine calcitonin, and the mixture was divided into two equal portions. SDS was added to one of the portions to make a final concentration of 0.1 w/v%; and no SDS was added to the other portion. The pH of both of the preparations was then adjusted to pH 5 with acetic acid/sodium acetate buffer (0.1M) solution. These two preparations were then stored at 37° C. for 8 days. The biological activity of calcitonin of the 8-day stored preparations was then investigated using 5-week-old Wister male rats. A dosage of 0.12 I.U./kg calcitonin of these two preparations was administered to the rats by injection into the femoral muscle. One hour after drug administration, blood was extracted from the right external jugular vein, and the blood calcium content was determined.

The test system of data set [8] is oophorectomized rats. The data set can be described thus: Serum calcium and serum calcitonin after intravaginal S-CT suppository. It counts as in vivo, rat. As to conditions: PEG suppository, 250 micrograms S-CT, BSA, Nonidet P-40, sodium caprate, 1, 2 and 4 hrs. The protocol: The model animals and experimental procedures are similar to that described in Example 10. The suppositories used in this Example were prepared as follows. 1 mg of S--CT was dissolved in 100 microliters of 0.1M acetate buffer solution (pH 5) containing 1.5 mg of BSA (bovine serum albumin), 10 mg of Nonidet P-40, and 5 mg of sodium caprate. 383 mg of suppository base composed of PEG 4000 (33%), PEG 6000 (47%) and distilled water (20%) was warmed to 45° to 50° C., then mixed well with the S--CT solution using a Vortex mixer for 1 min, then transferred into a brass suppository mold and cooled to approximately 4° C. for 2 hrs. 125 mg of S--CT suppository contained 250 micrograms of S--CT. 250 micrograms of a S--CT suppository was administered into the rat vagina. 1, 2, and 4 hrs after administration, blood samples were taken, and the serum calcium concentration and the serum calcitonin were determined by the same method used in Example 10.

Where [9] appears, read: 3 mg/ml BSA, pH 5.0, after 2 hours.

Where no end group is shown, it is not given here.

As for `CCCCCCCCCCCCOS(=O)(=O)[O-].[Na+]` [SDS, Sodium lauryl sulfate], the “ratio of decreased serum calcium concentration against the control” value in data set [1] (porcine calcitonin 20 I.U./ml, 3 mg BSA, SDS 0.05, 0.1, 0.5 and 1 w/v%, pH 5.0, 50 microliters intravaginal, 2 hours, control without SDS) is given as “increased correspondingly with increasing concentration of SDS”. For the same molecule, the “decrease of protease activity in comparison with the control group” value in the data set on intravaginal protease (1% SDS added group versus control without SDS) is listed as “about 30%”. Also, in the data set on intravaginal protease (1% SDS in calcitonin preparation, vaginal wash 2 hours after insertion), the “protease activity relative to control (control = 100.0)” value came to 29.2. Moreover, in the data set on intravaginal protease (1% SDS in calcitonin preparation, vaginal wash plus cotton ball 2 hours after insertion), the protease activity stood at 6.84 BAEE units/mg protein.

Consider Human calcitonin [HCT], for which, in the data set with oophorectomized rats [2], the “serum calcitonin (RIA)” value is recorded as “increased proportionally to the increase in the dosage of calcitonin administered into the vagina” and the serum calcium entry was “decreased correspondingly with an increase in calcitonin dosage”. Besides, in the data set on oophorectomized rats [3], the “serum calcitonin (RIA)” value is “increased proportionally to the increase in the dosage of calcitonin administered into the vagina” and the serum calcium result is listed as “decreased correspondingly with increase in calcitonin dosage”.

Consider insulin, for which, in the data set with oophorectomized rats [4] (setting [9]), the “Glucose Concentration in Serum” value is 53 ± 24.6 mg/dL and the “Glucose Concentration in Serum relative to prior to administration (100)” value was determined as 70.7%. Moreover, in the data set with oophorectomized rats [4] (BSA, 2 hours), the “decrease of blood sugar level in comparison with that prior to drug administration” value was “about 30%”.

For “porcine calcitonin (CSNLSTCVLSAYWRNLNNFHRFSGMGFGPETP; ends and bridges not checked; cysteine pairing not given here; UniProt P01259 1-32, looked up) [P-CT]”, the “stability of calcitonin in pH 6.8 solution with HSA” value in data set [5] (3 mg/ml HSA added) is “became as stable as calcitonin in a solution of pH 3.0 or 5.0”. The “stability of calcitonin in buffer solutions without HSA, pH 3.0 and 5.0” value in data set [5] (0.1M acetic acid buffer) is “stable”. Further, the “stability of calcitonin in buffer solution without HSA, pH 6.8” value in data set [5] (0.1M phosphoric acid buffer) is “unstable”. For the same molecule, the “ratio of decreased serum calcium against control (dose response)” value in data set [1] (2, 10, 20, 40 and 80 I.U./ml porcine calcitonin, 3 mg/ml BSA, 1 w/v% SDS, pH 5.0, intravaginal) is given as “exhibited an increase proportional to the increase of calcitonin concentration”. The “largest ratio of decreased serum calcium against control” value in data set [1] (2-80 I.U./ml porcine calcitonin, 3 mg/ml BSA, 1 w/v% SDS, intravaginal, young oophorectomized rats) is given as 30%; in data set [6] it was “about 10%”. Further, in data set [7] (P-CT (40 I.U.)/0.3% BSA/ml, pH 5.0, freshly made, 0.12 I.U./kg i.m., 1 hour), the “Ratio of Decreased Calcium Concentration Against Control, 0 day” value was 20.7. Moreover, the “Ratio of Decreased Calcium Concentration Against Control, 8 days (at 37° C.)” value in data set [7] (P-CT (40 I.U.)/0.3% BSA/ml, pH 5.0, stored 8 days at 37° C., 0.12 I.U./kg i.m., 1 hour) was found to be 11.1. Further, in data set [7] (stored at 37° C. for 8 days, pH 5, compared with freshly made preparation), the “biological activity after the 8-day storage period” value was “decreased to about half that of the freshly made preparation”.

For the molecule salmon calcitonin [S--CT], the “absorption of S-CT and its biological activity” value with oophorectomized rats [8] was “exhibit a dose-dependent response”.
